Patent US20220296565A1, “Pharmaceutical compositions of Ovatodiolide and the use thereof” (priority 2019, published 2022)

What was measured:
[1] = system: UT-SCC 102 patient derived HPV positive Head and Neck cancer cells; assay: MTT assay, UT-SCC 102; type: cell-based, human; details: UT-SCC 102, 72 h
Experimental: (§1) The MTT assay is a colorimetric assay widely used to study cell viability. It is based on the ability of NAD(P)H-dependent cellular oxidoreductase enzymes to reduce the MTT tetrazolium dye. The cells were treated with 0, 5, 10, 20 & 40 μM of OVT & AA for 72 h and then MTT was added and cytotoxicity was analyzed by a plate reader.
(§2) HPV-positive cervical cancer cells, SiHa, Hela cells, patient-derived HPV positive head and neck cancer cells and non-cancer human fibroblasts were treated with OVT at the dose range of 0, 5, 10, 20 and 40 μM and subjected to MTT assay and IC50 values were determined.

[2] = system: UT-SCC 60B patient derived HPV positive Head and Neck cancer cells; assay: MTT assay, UT-SCC 60B; type: cell-based, human; details: 72 h
Experimental: as §1, §2

[3] = system: UT-SCC 65 patient derived HPV positive Head and Neck cancer cells; assay: MTT assay, UT-SCC 65; type: cell-based, human; details: UT-SCC 65, 72 h
Experimental: as §1, §2

[4] = system: UT-SCC 60A patient derived HPV positive Head and Neck cancer cells; assay: MTT assay, UT-SCC 60A; type: cell-based, human; details: 72 h
Experimental: as §1, §2

[5] = system: UT-SCC 69 patient derived HPV positive Head and Neck cancer cells; assay: MTT assay, UT-SCC 69; type: cell-based, human; details: UT-SCC 69, 72 h
Experimental: as §1, §2

[6] = system: HeLa HPV 18 positive cervical cancer cells; assay: MTT assay, HeLa cells; type: cell-based, human; details: 72 h
Experimental: (§3) SiHa and HeLa cervical cancer cells and Human Dermal Fibroblasts (HDF) were cultured in DMEM (Sigma-Aldrich, St Louis, Mo., USA). The medium was supplemented with 10% fetal calf serum (BioClear, Wiltshire, UK), 2 mM L-glutamin, 100 U/ml penicillin, 100 μg/ml streptomycin (Sigma-Aldrich).
as §1, §2

[7] = system: non-cancer human fibroblast cells; assay: MTT assay, non-cancer human fibroblasts; type: cell-based; details: 72 h
Experimental: as §1, §2

SiHa cells [8] = assay: Activated caspase-3 by flow cytometry; type: cell-based, human
Experimental: SiHa cells were treated with 0, 20 & 40 μM AA or OVT or solvent control for 24 & 48 h. Activated caspase-3 in cells was labeled with phyco-erythrin-conjugated antibody according to manufacturer's protocol (PE Active Caspase-3 Apoptosis Kit; BD Pharmingen, San Diego, Calif.) and analyzed by FACSCalibur flow cytometer (FL-2, FSC, BD Pharmingen).
We then incubated the cells with 0, 20 & 40 μM AA & OVT 24 and 48 hours, and determined the percentage of cells that contained activated caspase-3 as a measure of apoptosis.

[9] = system: SiHa HPV 16 positive cervical cancer cells; assay: MTT assay, SiHa cells; type: cell-based, human; details: 72 h
Experimental: as §3, §1, §2

[10] = system: K87 primary skin fibroblast cells; assay: MTT assay, K87 fibroblasts; type: cell-based, human; details: 72 h
Experimental: as §1, §2

SiHa cells [11] = assay: Western blotting of SiHa cell lysates; type: cell-based, human
Experimental: Whole cell lysates were prepared by lysing the cells in Laemmli sample buffer (Laemmli, 1970) and boiling the samples for 10 min after which proteins were separated in 12.5-15% SDS-PAGE. Western blotting was performed using antibodies against caspase 3 (Cell Signaling), HPV16 E6, E7 (Santa Cruz Biotechnology, Inc, Santa Cruz, Calif.), and […] (clone AC-40; Sigma-Aldrich). Horseradish peroxidase-conjugated secondary antibodies were obtained from Southern Biotechnology Associates (Birmingham, Ala.), Promega (Madison, Wis.) and Amersham Biosciences (Freiburg, Germany). The results were visualized using the ECL method (Amersham Biosciences) on X-ray film. The presented Western blot results are representative of at least three independent experiments. SiHa cervical cancer cells have been transformed by high-risk human papillomavirus (HPV). As E6 and E7 play such critical roles in SiHa cell transformation, the expression of these viral proteins was examined.

SiHa cells [12] = assay: Cell-IQ high content imaging, proliferation of SiHa; type: cell-based, human; details: various doses, till 72 h
Experimental: (§4) SiHa cells—HPV 16 positive cervical cancer cell line; HeLa—HPV 18 positive cervical cancer cell line. […] Numbers 1-6 on the x-axis indicate 12 h intervals. The area of the plate that cells cover is indicated on the y-axis (arbitrary number of units).
(§5) The Cell-IQ Real-time imaging provides information on how the compounds are affecting cell morphology and cell proliferation at various doses up to 72 h. A rigorous image analysis protocol was developed to assess the effects of the compounds on cell proliferation.
(§6) The cells were imaged by high content imaging in Cell-IQ and the proliferation of the cells was observed till 72 h.

HeLa cells = assay: Cell-IQ high content imaging, proliferation of HeLa; type: cell-based, human; details: various doses, till 72 h
Experimental: as §4, §5, §6

[13] = system: K74 primary skin fibroblast cells; assay: MTT assay, K74 fibroblasts; type: cell-based, human; details: 72 h
Experimental: as §1, §2

SiHa cells [14] = assay: Phase contrast microscopy of SiHa cells; type: cell-based, human; details: 40 μM
Excerpt: In order to examine the mechanism underlying the previously reported cytotoxicity of OVT, we investigated if OVT would induce apoptotic death of cultured SiHa cervical cancer cells.

C=C1C(=O)OC2/C=C(/C)CC/C=C(\C(=O)O)CC/C=C(\C)CCC12 (stereo not drawn) [Anisomelic acid (AA), Anisomelic acid, reference compound]
IC50 [1]: 28.2 µM | IC50 [2]: 22.8 µM | IC50 [3]: 42.8 µM | IC50 [4]: 18 µM | IC50 [5]: 23.9 µM | IC50 [6]: 33.2 µM | toxicity to non-cancer human fibroblast cells [7]: not toxic at all | activation of caspase-3 (SiHa cells [8]; 40 μM, after 48 h): marked activation | IC50 [9]: 32.1 µM

Ovatodiolide
IC50 [1]: 7.73 µM | IC50 [2]: 3.33 µM | IC50 [10]: 19.7 µM | IC50 [3]: 14.1 µM | cleavage of caspase-3 (SiHa cells [11]; 20-40 μM): induced the cleavage | HPV E6 and E7 viral proteins (SiHa cells [11]; Western blot): downregulation | cIAP2 protein level (SiHa cells [11]; Western blot): downregulation | IC50 [4]: 5.53 µM | IC50 [5]: 0.859 µM | IC50 [6]: 10.7 µM | cell proliferation (SiHa cells [12]): inhibited the cell proliferation | cell proliferation (HeLa cells): inhibited the cell proliferation | activation of caspase-3 (SiHa cells [8]; 20 μM, after 24 h, compared with 40 μM AA after 48 h): higher activation | activation of caspase-3 compared to AA at the same concentration (SiHa cells [8]; 40 μM, after 48 h): almost doubled | IC50 [13]: 13.2 µM | cell death in SiHa cells (SiHa cells [14]): induced cell death | effect on cell morphology (SiHa cells [14]; 72 hours, SiHa): clear effect on cell morphology | IC50 [9]: 10.7 µM
